The values below come from patent US10829501B2 (BRISTOL-MYERS SQUIBB COMPANY, priority 2016, dated 2020).

Each structure is given as a SMILES string. Structures can show the parent of a compound that is named as a salt. Some results are limits rather than exact numbers.

In the assay the target is ROCK2 (Homo sapiens, UniProt O75116). The assay can be described thus: ROCK2 kinase inhibition assay (LABCHIP 3000 Reader, FITC peptide substrate).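 Further: rho kinase reaction read by separating phosphorylated from unphosphorylated peptide on chip, with inhibition of kinase activity computed per concentration across a dose-response series.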
ROCK2, sequence (O75116 whole entry, species assumed): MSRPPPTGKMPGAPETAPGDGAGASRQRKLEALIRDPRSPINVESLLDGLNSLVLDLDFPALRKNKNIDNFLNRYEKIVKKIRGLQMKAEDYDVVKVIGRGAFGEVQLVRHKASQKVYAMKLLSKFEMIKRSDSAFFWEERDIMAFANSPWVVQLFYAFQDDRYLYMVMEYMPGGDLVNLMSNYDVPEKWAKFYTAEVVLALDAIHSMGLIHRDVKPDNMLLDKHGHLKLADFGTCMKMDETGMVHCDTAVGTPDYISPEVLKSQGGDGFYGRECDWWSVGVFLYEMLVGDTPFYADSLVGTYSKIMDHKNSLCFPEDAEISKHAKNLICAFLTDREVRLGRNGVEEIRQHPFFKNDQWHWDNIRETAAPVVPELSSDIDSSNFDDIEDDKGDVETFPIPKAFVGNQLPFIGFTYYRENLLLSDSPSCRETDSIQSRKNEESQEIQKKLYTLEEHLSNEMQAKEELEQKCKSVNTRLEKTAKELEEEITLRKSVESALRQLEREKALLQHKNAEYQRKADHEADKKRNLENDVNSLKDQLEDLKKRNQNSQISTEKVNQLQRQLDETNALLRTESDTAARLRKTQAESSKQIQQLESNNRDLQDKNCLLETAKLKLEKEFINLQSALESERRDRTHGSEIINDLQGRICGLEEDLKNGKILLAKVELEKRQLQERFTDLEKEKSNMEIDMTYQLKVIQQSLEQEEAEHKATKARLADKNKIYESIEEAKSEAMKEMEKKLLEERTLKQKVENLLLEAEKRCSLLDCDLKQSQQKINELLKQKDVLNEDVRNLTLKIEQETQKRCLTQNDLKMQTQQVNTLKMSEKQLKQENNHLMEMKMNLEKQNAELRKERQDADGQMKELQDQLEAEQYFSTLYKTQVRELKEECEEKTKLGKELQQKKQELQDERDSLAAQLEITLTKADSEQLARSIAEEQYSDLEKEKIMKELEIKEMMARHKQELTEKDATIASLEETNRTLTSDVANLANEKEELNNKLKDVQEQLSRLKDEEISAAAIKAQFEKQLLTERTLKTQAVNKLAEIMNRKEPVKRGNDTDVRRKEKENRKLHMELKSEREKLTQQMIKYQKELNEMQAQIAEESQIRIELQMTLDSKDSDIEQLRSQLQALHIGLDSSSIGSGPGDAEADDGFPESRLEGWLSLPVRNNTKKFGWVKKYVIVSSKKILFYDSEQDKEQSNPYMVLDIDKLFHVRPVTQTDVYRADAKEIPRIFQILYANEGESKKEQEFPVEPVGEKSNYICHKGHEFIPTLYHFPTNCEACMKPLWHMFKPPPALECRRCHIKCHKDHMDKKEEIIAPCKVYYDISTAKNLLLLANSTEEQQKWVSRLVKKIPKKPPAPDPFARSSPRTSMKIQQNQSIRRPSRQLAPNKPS

As for `N#Cc1ccc(F)c(C(=O)N[C@H]2CC3(C2)C[C@H](Oc2ncccc2C(N)=O)C3)c1` (stereo partly drawn) [Example 155, 2-(((aR)-6-(5-cyano-2-fluorobenzamido)spiro[3.3]heptan-2-yl)oxy)nicotinamide], the half-maximal inhibitory concentration (IC50) – broadly, the concentration that gives 50% inhibition – lay in the range of 250 to 2500 nM.
`N#Cc1cc(C(=O)N[C@H]2CC3(C2)C[C@H](Oc2ncccc2C(N)=O)C3)ccc1F` (stereo partly drawn) [Example 156, 2-(((aR)-6-(3-cyano-4-fluorobenzamido)spiro[3.3]heptan-2-yl)oxy) nicotinamide]: the half-maximal inhibitory concentration (IC50) lay in the range of 50 to 250 nM.
Take `N#Cc1cc(F)cc(C(=O)N[C@H]2CC3(C2)C[C@H](Oc2ncccc2C(N)=O)C3)c1` (stereo partly drawn) [Example 157, 2-(((aR)-6-(3-cyano-5-fluorobenzamido)spiro[3.3]heptan-2-yl)oxy) nicotinamide]: the IC50 was 50 to 250 nM.
Take `N#Cc1cccc(C(=O)N[C@H]2CC3(C2)C[C@H](Oc2ncccc2C(N)=O)C3)c1` (stereo partly drawn) [Example 158, 2-(((aR)-6-(3-cyanobenzamido)spiro[3.3]heptan-2-yl)oxy) nicotinamide]: the IC50 is 50 to 250 nM.
Take `NC(=O)c1cccnc1O[C@H]1CC2(C[C@H](NC(=O)c3cc4ccccc4cn3)C2)C1` (stereo partly drawn) [Example 159, N-((aR)-6-((3-carbamoylpyridin-2-yl)oxy)spiro[3.3]heptan-2-yl)isoquinoline-3-carboxamide]: the IC50 lay in the range of 50 to 250 nM.
In turn, `N#Cc1cccc(-c2ccc(C(=O)N[C@H]3CC4(C3)C[C@H](Oc3ncccc3C(N)=O)C4)cc2)c1` (stereo partly drawn) [Example 160, 2-(((aR)-6-(3′-cyano-[1,1′-biphenyl]-4-ylcarboxamido)spiro[3.3]heptan-2-yl)oxy) nicotinamide] displayed an IC50 of 50 to 250 nM.
`N#Cc1ccc(-c2ccc(C(=O)N[C@H]3CC4(C3)C[C@H](Oc3ncccc3C(N)=O)C4)cn2)cc1` (stereo partly drawn) [Example 161, N-((aR)-6-((3-carbamoylpyridin-2-yl)oxy)spiro[3.3]heptan-2-yl)-6-(4-cyanophenyl) nicotinamide] showed an IC50 of 5 to 50 nM.
In the case of `NC(=O)c1cccnc1O[C@H]1CC2(C[C@H](NC(=O)c3ccc(-c4cccc(F)c4)cc3)C2)C1` (stereo partly drawn) [Example 162, 2-(((aR)-6-(3′-fluoro-[1,1′-biphenyl]-4-ylcarboxamido)spiro[3.3]heptan-2-yl)oxy)nicotinamide], the IC50 was in the range of 5 to 50 nM.
For `CC1(C)Cc2cccc(C(=O)N[C@H]3CC4(C3)C[C@H](Oc3ncccc3C(N)=O)C4)c2O1` (stereo partly drawn) [Example 163, 2-(((aR)-6-(2,2-dimethyl-2,3-dihydrobenzofuran-7-carboxamido)spiro[3.3]heptan-2-yl)oxy) nicotinamide] the value was 250 to 2500 nM; for `Cc1nc(-c2ccccc2)oc1C(=O)N[C@H]1CC2(C1)C[C@H](Oc1ncccc1C(N)=O)C2` (stereo partly drawn) [Example 164, N-((aR)-6-((3-carbamoylpyridin-2-yl)oxy)spiro[3.3]heptan-2-yl)-4-methyl-2-phenyloxazole-5-carboxamide], 250 to 2500 nM.
Turning to `NC(=O)c1cccnc1O[C@H]1CC2(C[C@H](NC(=O)c3ncoc3-c3ccccc3)C2)C1` (stereo partly drawn) [Example 165, N-((aR)-6-((3-carbamoylpyridin-2-yl)oxy)spiro[3.3]heptan-2-yl)-5-phenyloxazole-4-carboxamide], the IC50 fell in the range of 50 to 250 nM.
In the case of `CC(C)(O)COc1ccn2c(C(=O)NC3CC4(C3)CC(Oc3ncccc3C(N)=O)C4)cnc2c1` (stereo not drawn) [Example 166, N-((αR)-6-((3-carbamoylpyridin-2-yl)oxy)spiro[3.3]heptan-2-yl)-7-(2-hydroxy-2-methylpropoxy) imidazo[1,2-a]pyridine-3-carboxamide], the half-maximal inhibitory concentration (IC50) was 5 to 50 nM.
On to `COc1ccc(C(N)=O)c(O[C@H]2CC3(C[C@H](NC(=O)c4cnn5c(C6CC6)c(OCC(C)(C)O)ccc45)C3)C2)n1` (stereo partly drawn) [Example 167, N-((aR)-6-((3-carbamoyl-6-methoxypyridin-2-yl)oxy)spiro[3.3]heptan-2-yl)-7-cyclopropyl-6-(2-hydroxy-2-methylpropoxy)pyrazolo [1,5-a]pyridine-3-carboxamide], for which the IC50 is < 5 nM.
`COc1ccc(C(N)=O)c(O[C@H]2CC3(C[C@H](NC(=O)c4cnn5c(CCC(F)(F)F)c(OCC(C)(C)O)ccc45)C3)C2)n1` (stereo partly drawn) [Example 168, N-((aR)-6-((3-carbamoyl-6-methoxypyridin-2-yl)oxy)spiro[3.3]heptan-2-yl)-6-(2-hydroxy-2-methylpropoxy)-7-(3,3,3-trifluoropropyl)pyrazolo [1,5-a]pyridine-3-carboxamide]: the 50% inhibitory concentration (IC50) was < 5 nM.
`COc1ccc(C(N)=O)c(O[C@H]2CC3(C[C@H](NC(=O)c4nn(CC(C)(C)O)c5ccc(F)cc45)C3)C2)n1` (stereo partly drawn) [Example 169, N-((aR)-6-((3-carbamoyl-6-methoxypyridin-2-yl)oxy)spiro[3.3]heptan-2-yl)-5-fluoro-1-(2-hydroxy-2-methylpropyl)-1H-indazole-3-carboxamide] displayed a half-inhibitory concentration (IC50) of 5 to 50 nM.
On to `NC(=O)c1cccnc1O[C@H]1CC2(C[C@H](NC(=O)c3cnc4c(C5CC5)cccn34)C2)C1` (stereo partly drawn) [Example 170, N-((aR)-6-((3-carbamoylpyridin-2-yl)oxy)spiro[3.3]heptan-2-yl)-8-cyclopropylimidazo[1,2-a]pyridine-3-carboxamide, Trifluoroacetate], for which the 50% inhibitory concentration (IC50) is 50 to 250 nM.
With `NC(=O)c1cccnc1O[C@H]1CC2(C[C@H](NC(=O)c3nn(C(F)F)c4cc(OCc5ccccc5)ccc34)C2)C1` (stereo partly drawn) [Example 171, 6-(benzyloxy)-N-((aR)-6-((3-carbamoylpyridin-2-yl)oxy)spiro[3.3]heptan-2-yl)-1-(difluoromethyl)-1H-indazole-3-carboxamide, trifluoroacetate], the half-inhibitory concentration (IC50) is 5 to 50 nM.
Consider `NC(=O)c1cccnc1O[C@H]1CC2(C[C@H](NC(=O)c3nn(C(F)F)c4cc(Br)ccc34)C2)C1` (stereo partly drawn) [Example 172, 6-bromo-N-((aR)-6-((3-carbamoylpyridin-2-yl)oxy)spiro[3.3]heptan-2-yl)-1-(difluoromethyl)-1H-indazole-3-carboxamide, trifluoroacetate], for which the 50% inhibitory concentration (IC50) lay in the range of 5 to 50 nM.
Take `Cn1nc(C(=O)N[C@H]2CC3(C2)C[C@H](Oc2ncccc2C(N)=O)C3)c2ccc(F)cc21` (stereo partly drawn) [Example 173, N-((aR)-6-((3-carbamoylpyridin-2-yl)oxy)spiro[3.3]heptan-2-yl)-6-fluoro-1-methyl-1H-indazole-3-carboxamide, trifluoroacetate]: the IC50 fell in the range of 5 to 50 nM.
Turning to `[2H]C([2H])([2H])n1nc(C(=O)N[C@H]2CC3(C2)C[C@H](Oc2ncccc2C(N)=O)C3)c2ccc(F)cc21` (stereo partly drawn) [Example 174, 6-fluoro-1-(^2H3)methyl-N-[(aR)-6-[(3-carbamoylpyridin-2-yl)oxy]spiro[3.3]heptan-2-yl]-1H-indazole-3-carboxamide, trifluoroacetate], the IC50 lay in the range of 5 to 50 nM.
For `NC(=O)c1cccnc1O[C@H]1CC2(C[C@H](NC(=O)c3nn(CC(F)F)c4cc(F)ccc34)C2)C1` (stereo partly drawn) [Example 175, N-((aR)-6-((3-carbamoylpyridin-2-yl)oxy)spiro[3.3]heptan-2-yl)-1-(2,2-difluoroethyl)-6-fluoro-1H-indazole-3-carboxamide, trifluoroacetate] the value was < 5 nM; for `[2H]C([2H])([2H])n1nc2cc(F)ccc2c1C(=O)N[C@H]1CC2(C1)C[C@H](Oc1ncccc1C(N)=O)C2` (stereo partly drawn) [Example 176, 6-fluoro-2-(^2H3)methyl-N-[(aR)-6-[(3-carbamoylpyridin-2-yl)oxy]spiro[3.3]heptan-2-yl]-2H-indazole-3-carboxamide, trifluoroacetate], 250 to 2500 nM; for `COc1cccc(-c2ccc3c(C(=O)N[C@H]4CC5(C4)C[C@H](Oc4ncccc4C(N)=O)C5)nn(C(F)F)c3c2)c1` (stereo partly drawn) [Example 177, N-((aR)-6-((3-carbamoylpyridin-2-yl)oxy)spiro[3.3]heptan-2-yl)-1-(difluoromethyl)-6-(3-methoxyphenyl)-1H-indazole-3-carboxamide, trifluoroacetate], 5 to 50 nM.
With `NC(=O)c1cccnc1OC1CC2(CC(NC(=O)c3nnc4cc(N5CCOCC5)ccn34)C2)C1` [Example 179, N-((aR)-6-((3-carbamoylpyridin-2-yl)oxy)spiro[3.3]heptan-2-yl)-7-morpholino-[1,2,4] triazolo[4,3-a]pyridine-3-carboxamide], the concentration for half-maximal inhibition (IC50) was 5 to 50 nM.
With `[H][C@]1(Oc2ncccc2C(N)=O)C[C@@]2(C[C@H](NC(=O)c3cc(C#N)cc(-c4cnc(C)s4)c3)C2)C1` (stereo partly drawn) [Example 180, 2-(((aR)-6-(3-cyano-5-(2-methylthiazol-5-yl)benzamido)spiro[3.3]heptan-2-yl)oxy)nicotinamide, TFA], the concentration for half-maximal inhibition (IC50) is < 5 nM.
For `[2H]C([2H])([2H])n1cc(-c2cc(C#N)cc(C(=O)N[C@H]3CC4(C3)C[C@H](Oc3ncccc3C(N)=O)C4)c2)cn1` (stereo partly drawn) [Example 181, 2-(((aR)-6-(3-cyano-5-(1-(methyl-d3)-1H-pyrazol-4-yl)benzamido)spiro [3.3]heptan-2-yl)oxy)nicotinamide, trifluoroacetate] the value was < 5 nM.
Consider `Cc1nn(C)cc1-c1cc(C#N)cc(C(=O)N[C@H]2CC3(C2)C[C@H](Oc2ncccc2C(N)=O)C3)c1` (stereo partly drawn) [Example 182, 2-(((aR)-6-(3-cyano-5-(1,3-dimethyl-1H-pyrazol-4-yl)benzamido)spiro [3.3]heptan-2-yl)oxy)nicotinamide, trifluoroacetate], for which the IC50 was < 5 nM.
For `N#Cc1cc(C(=O)N[C@H]2CC3(C2)C[C@H](Oc2ncccc2C(N)=O)C3)cc(C2CC2)c1` (stereo partly drawn) [Example 183, 2-(((aR)-6-(3-cyano-5-cyclopropylbenzamido)spiro[3.3]heptan-2-yl)oxy) nicotinamide, trifluoroacetate] the value was 5 to 50 nM.
For `Cn1cc(-c2cc(C#N)cc(C(=O)N[C@H]3CC4(C3)C[C@H](Oc3ncccc3C(N)=O)C4)c2)c(C(F)(F)F)n1` (stereo partly drawn) [Example 184, 2-(((aR)-6-(3-cyano-5-(1-methyl-3-(trifluoromethyl)-1H-pyrazol-4-yl)benzamido)spiro[3.3]heptan-2-yl)oxy)nicotinamide, trifluoroacetate] the value was 5 to 50 nM; for `Cc1c(-c2cc(C#N)cc(C(=O)N[C@H]3CC4(C3)C[C@H](Oc3ncccc3C(N)=O)C4)c2)cnn1C` (stereo partly drawn) [Example 185, 2-(((aR)-6-(3-cyano-5-(1,5-dimethyl-1H-pyrazol-4-yl)benzamido)spiro[3.3]heptan-2-yl)oxy)nicotinamide, trifluoroacetate], < 5 nM.
